Data: US10301308B2, “Azetidine derivatives for tau imaging” (Eli Lilly and Company, priority 2015, dated 2019)

Key:
[1] = target: PHF (tau from Alzheimer's disease donors) (Homo sapiens, UniProt P10636); assay: Saturation binding of radiolabeled compound to PHF (Kd determination); conditions: tau obtained from donors with Alzheimer's disease
From the text: Purified, soluble PHF is isolated from AD brain tissue using a protocol modified from the procedure described by Jicha, et al. (G. A. Jicha, A. O'Donnell, C. Weaver (1999) “Hierarchical phosphorylation of recombinant tau by the paired-helical filament-associated protein kinase is dependent on cyclic AMP-dependent protein kinase” J Neurochem. 72(1):214). Briefly, AD cortex is homogenized using a handheld Kinematica Polytron, followed by high pressure batch—gas expansion using a Parr Cell disruption bomb. Crude homogenate is centrifuged at 28 kg to pellet cell debris. […]
The dissociation constant [Kd] for the radiolabeled compound 3-(3-[18F]-fluoroazetidin-1-yl)-8-methylbenzo[4,5]imidazol[1,2-a]pyridine is determined by saturation binding, in which the total and nonspecific binding of the radioligand are measured at various radioligand concentrations. […] After incubation for 1.5 h at 37° C., the bound radioactivity is harvested by vacuum filtration onto Millipore MultiScreenHTS 96-well glass fiber FB filter plates, using a Millipore MultiScreenHTS Vacuum Manifold, followed by five washes with PBS. Filters containing bound 3-(3-[18F]-fluoroazetidin-1-yl)-8-methylbenzo[4,5]imidazo[1,2-a]pyridine are assayed for radioactivity in a Wizard 2480 automatic gamma-counter [Perkin Elmer]. […]

[2] = system: native tau aggregates vs native β-amyloid aggregates in human brain sections; assay: Autoradiography selectivity towards tau versus β amyloid in AD human brain tissue; assay type: binding
From the text: Based on the anti-tau and anti-amyloid immunostaining results of brain sections, three groups of human brain sections are selected for autoradiography experiments to determine the native tau-binding selectivity of 3-(3-[18F]-fluoroazetidin-1-yl)-8-methylbenzo[4,5]imidazo[1,2-a]pyridine. Group A are tau-rich AD brain slices (labeled as Tau+Aβ+), Group B are tau-poor AD brain slices (marked as Tau-Aβ+), and Group C are Tau-Aβ− normal brain slices. […] The human AD brain sections in Group B are #33562, #32656, #33998, #35682, and #33563. The normal human brain sections in group C are #29092 and #32566. Tissue slices from the same donors are used to calculate selectivity for all three compounds for testing according to Assay Example 5. Autoradiography is performed for each of these three groups of brains on adjacent 10 μm sections with the amyloid tracer [18F]W372 to quantify the β-amyloid burden. [18F]W372 is a selective amyloid binding tracer discovered by Siemens and evaluated under IND 105173. Sections are covered with 0.5 ml of 3-(3-[18F]-fluoroazetidin-1-yl)-8-methylbenzo[4,5]imidazo[1,2-a]pyridine (in 2.5:2.5:95 DMSO:EtOH:1×PBS, about 20 μCi/slide) and incubated for 1.5 hrs. Then successive washing cycles (1 min PBS, 2 min 30% EtOH/PBS, 2 min 70% EtOH/PBS, 1 min PBS) are employed to remove any unbound tracer. The sections are air dried, placed on a phosphorimaging plate (Fuji IP plate), and exposed overnight. The IP plate is read using a GE Healthcare Life Sciences Typhoon FLA 7000 Phosphorimager. The signal intensity of the grey matter is measured using Fujifilm Multi Gauge software. After subtracting the background signal (signal in the cortex region of Group C), the signal of individual sections of Group A and B are normalized with corresponding signal from autoradiography of the respective adjacent sections with [18F]W372. The calculations are based on Group B brain sections #32656 and #33998, which have undetectable tau pathology by immunohistochemistry. The normalized signal for 3-(3-[18F]-fluoroazetidin-1-yl)-8-methylbenzo[4,5]imidazo[1,2-a]pyridine in Group B brain sections is the relative signal level of 3-(3-[18F]-fluoroazetidin-1-yl)-8-methylbenzo[4,5]imidazo[1,2-a]pyridine to [F-18]W372 resulting from binding to native β-amyloid aggregates. The binding level of 3-(3-[18F]-fluoroazetidin-1-yl)-8-methylbenzo[4,5]imidazo[1,2-a]pyridine to native tau-aggregates in Group A sections is estimated by subtracting the amount of the total signal attributable to binding to 3-amyloid (calculated by multiplying the total signal from [18F]W372 binding to β-amyloid in the adjacent section by the relative signal of 3-(3-[18F]-fluoroazetidin-1-yl)-8-methylbenzo[4,5]imidazo[1,2-a]pyridine to [18F]W372 determined from the Group B sections). The resulting difference is then divided by the signal attributable to binding to β-amyloid to estimate the selectivity of 3-(3-[18F]-fluoroazetidin-1-yl)-8-methylbenzo[4,5]imidazo[1,2-a]pyridine. […] The selectivity of 3-(3-[18F]-fluoroazetidin-1-yl)-8-methylbenzo[4,5]imidazo[1,2-a]pyridine binding to native tau aggregates vs. binding native β-amyloid aggregates is reflected by the ratio of Group A (Tau+Aβ+) signal to the signal of the brain sections #32656 and #33998.

[3] = system: normal human brain tissue; assay: Autoradiography on normal versus AD human brain slices, less stringent or alcohol free washes; assay type: binding
From the text: In order to show the absence of non-tau binding, autoradiography scans are obtained from 3-(3-[18F]-fluoroazetidin-1-yl)-8-methylbenzo[4,5]imidazo[1,2-a]pyridine on normal human brain tissue. The experimental procedure is the same as provided in Example 5 except that only 20 uCi of 18F-ligand is applied to the tissue slices and the washing conditions are less stringent. […] The autoradiography is further carried out with no ethanol in the washing solutions.

Sequence of PHF (tau from Alzheimer's disease donors) (P10636 623-708 limits assumed): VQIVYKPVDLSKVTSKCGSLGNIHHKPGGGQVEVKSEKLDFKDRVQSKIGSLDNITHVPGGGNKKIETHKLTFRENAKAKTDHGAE

- Kd [1]: 0.85 ± 0.02 nM
- selectivity of binding to native tau aggregates vs native β-amyloid aggregates ([2]; grey matter region of human AD brains): approximately 27 fold
SMILES: Cc1ccc2nc3cc(N4CC([18F])C4)ccn3c2c1 [Compound 8, 3-(3-[18F]-fluoroazetidin-1-yl)-8-methylbenzo[4,5]imidazo[1,2-a]pyridine]
- selectivity ratio for Tau:Aβ ([2]; 5 Tau+Aβ+ and 2 Tau-Aβ+ brain specimens): approximately 26.6±4.5
- autoradiography signal on grey matter (cortex region) ([2]; Group A (Tau+Aβ+) sections): Strong signal
- autoradiography signal on cortex regions ([2]; Group B (Tau-Aβ+) sections): weak or no signal
- autoradiography signal ([2]; Group C (Tau-Aβ−) normal brain sections): No autoradiography signal
- grey matter to white matter (GM/WM) signal ratio ([2]; autoradiography, Tau+Aβ+ brain specimens): approximately 17.3±1.7
- autoradiography signal on normal brain sections, grey vs white matter ([2]; normal brain sections): weak and even
- blocking of signal in AD brain tissue ([3]; AD30121, frontal cortex): can be blocked by non-radiolabelled compound or with the known tau PET tracer T807
- autoradiography signal in normal cortical or white matter tissue compared to [18F]T807 ([3]; no ethanol in the washing solutions): much lower autoradiography signal
- radioactivity signal in normal tissue ([3]; washes PBS, 10% ethanol/PBS, 30% ethanol/PBS, PBS, vs AD brain tissue): considerably lower than in AD brain tissue
